# Data from ChEMBL document CHEMBL1201862, “PubChem BioAssay data set” (2004).
# Activity calls are given as the source filed them.
# Columns and labels:
# [1] = molecular target: T1, Polyadenylate-binding protein 1 (Homo sapiens, UniProt P11940); experiment: MLLE domain peptide-binding blockers, IC50 – biochemical, fluorescence polarization, FITC-PAM2 peptide, dose response (AID 602259); type: functional; conditions: read-out: IC50_Mean
# [2] = molecular target: T1, Polyadenylate-binding protein 1; experiment: MLLE binding blockers, Cy5 peptide tracer – biochemical, fluorescence polarization, Cy5-PAM2 peptide, secondary, miRNA deadenylation inhibitor project, dose response (AID 602260); type: functional; conditions: read-out: IC50_Mean
# [3] = molecular target: T2, Ubiquitin-conjugating enzyme E2 N (Homo sapiens, UniProt P61088); type: functional;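 further: Dose-response confirmation in a TR-FRET assay detecting UBC13-driven polyubiquitin chain formation, inhibition measured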
# T2 sequence (P61088 whole entry): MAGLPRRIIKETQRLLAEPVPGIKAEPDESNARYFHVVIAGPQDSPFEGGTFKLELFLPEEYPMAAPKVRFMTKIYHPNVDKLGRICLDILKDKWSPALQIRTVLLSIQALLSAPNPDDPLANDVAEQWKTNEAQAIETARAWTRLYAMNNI
# [4] = blockers of HIV-1 envelope-mediated cell-cell fusion – cherry-pick, dose response (AID 652057); type: functional, cell-based
# [5] = non-specific 3'UTR reporter inhibition in Clone20-Shn3RL – cell-based, Renilla luciferase, cherry-picked, counter-screen for Shn3 inhibitor project, dose response (AID 624133); type: functional
# [6] = blockers of HIV-1 ZM109 envelope-driven cell-cell fusion – HeLa effector, CEM target cells, luciferase, cherry-pick, dose response (AID 652058); type: functional, cell-based;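 further: luciferase signal from HIV-1 Env mediated cell-cell fusion of effector and target cells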
# [7] = NIH-3T3 fibroblast cytotoxicity, dose response, cytotoxicity control, cell-based, fluorescence, Alamar Blue, secondary assay (AID 2327); type: functional;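 further: NIH-3T3 mouse fibroblasts cultured with fluconazole at 8 µg/mL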
# [8] = loss of viability in HepG2 cells – cell-based, CellTiter-Glo, cherry-picked, cytotoxicity control for Shn3 inhibitor project, dose response (AID 624134); type: functional
# [9] = reduction of Shn3 3'UTR-driven luciferase in osteoblasts – cell-based, Clone20 osteoblasts, firefly luciferase, cherry-picked, dose response (AID 624132); type: functional;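 further: firefly luciferase luminescence from reporter carrying the Shn3 3'UTR in osteoblasts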
# [10] = HIV-1 AD8 envelope cell-cell fusion blockers – cherry-pick, dose response (AID 652062); type: functional, cell-based;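 further: luciferase signal from cell-cell fusion driven by HIV-1 clade B AD8 Env; potency is for inhibitors of fusion seen as a drop in luminescence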
# [11] = fluconazole-exposed Candida albicans growth modulators – fluorescence, retest, confirmation (AID 2467); type: functional, cell-based
# [12] = molecular target: T3, Heat shock factor protein 1 (Mus musculus, UniProt P38532); experiment: enhancement of HSF1-driven luciferase signal – cell-based, NIH3T3, luminescence, dose retest, confirmation (AID 435004); type: functional;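 further: stress induced by proteasome inhibitor MG132 added 30 min after compound; luciferase reporter driven by HSF1 response element in NIH3T3 cells; actives raise luminescence as potentiators of the MG132 stress response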
# T3 sequence (P38532 whole entry): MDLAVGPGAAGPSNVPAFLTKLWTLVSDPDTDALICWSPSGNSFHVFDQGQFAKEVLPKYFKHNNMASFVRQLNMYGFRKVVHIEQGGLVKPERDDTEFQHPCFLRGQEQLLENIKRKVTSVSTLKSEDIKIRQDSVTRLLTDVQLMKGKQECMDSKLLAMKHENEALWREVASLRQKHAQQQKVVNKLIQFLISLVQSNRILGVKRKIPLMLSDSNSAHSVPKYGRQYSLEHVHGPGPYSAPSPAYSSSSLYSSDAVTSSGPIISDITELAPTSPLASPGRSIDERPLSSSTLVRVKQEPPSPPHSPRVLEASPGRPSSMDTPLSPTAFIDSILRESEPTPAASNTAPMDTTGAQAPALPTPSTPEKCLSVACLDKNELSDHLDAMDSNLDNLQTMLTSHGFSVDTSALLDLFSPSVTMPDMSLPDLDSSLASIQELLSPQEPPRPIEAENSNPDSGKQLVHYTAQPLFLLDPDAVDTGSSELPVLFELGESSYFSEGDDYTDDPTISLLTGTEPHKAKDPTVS
# Fatty acid synthase [13] = molecular target: T4, Fatty acid synthase (Homo sapiens, UniProt P49327); experiment: inhibition of human FAS-TE enzyme activity – biochemical, endpoint fluorescence intensity, uHTS hits, dose response (AID 624327); type: functional;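 further: fluorescence from hydrolysis of an O-methyl fluorescein acyl ester substrate by the enzyme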
# cells = type: functional
# [14] = molecular target: T5, Replicative DNA helicase DnaB (Mycobacterium tuberculosis, UniProt P9WMR3); experiment: DnaB intein splicing inhibitors, dose response, biochemical, cell-free fluorescence (AID 449749); type: functional
# T5 sequence (P9WMR3 whole entry): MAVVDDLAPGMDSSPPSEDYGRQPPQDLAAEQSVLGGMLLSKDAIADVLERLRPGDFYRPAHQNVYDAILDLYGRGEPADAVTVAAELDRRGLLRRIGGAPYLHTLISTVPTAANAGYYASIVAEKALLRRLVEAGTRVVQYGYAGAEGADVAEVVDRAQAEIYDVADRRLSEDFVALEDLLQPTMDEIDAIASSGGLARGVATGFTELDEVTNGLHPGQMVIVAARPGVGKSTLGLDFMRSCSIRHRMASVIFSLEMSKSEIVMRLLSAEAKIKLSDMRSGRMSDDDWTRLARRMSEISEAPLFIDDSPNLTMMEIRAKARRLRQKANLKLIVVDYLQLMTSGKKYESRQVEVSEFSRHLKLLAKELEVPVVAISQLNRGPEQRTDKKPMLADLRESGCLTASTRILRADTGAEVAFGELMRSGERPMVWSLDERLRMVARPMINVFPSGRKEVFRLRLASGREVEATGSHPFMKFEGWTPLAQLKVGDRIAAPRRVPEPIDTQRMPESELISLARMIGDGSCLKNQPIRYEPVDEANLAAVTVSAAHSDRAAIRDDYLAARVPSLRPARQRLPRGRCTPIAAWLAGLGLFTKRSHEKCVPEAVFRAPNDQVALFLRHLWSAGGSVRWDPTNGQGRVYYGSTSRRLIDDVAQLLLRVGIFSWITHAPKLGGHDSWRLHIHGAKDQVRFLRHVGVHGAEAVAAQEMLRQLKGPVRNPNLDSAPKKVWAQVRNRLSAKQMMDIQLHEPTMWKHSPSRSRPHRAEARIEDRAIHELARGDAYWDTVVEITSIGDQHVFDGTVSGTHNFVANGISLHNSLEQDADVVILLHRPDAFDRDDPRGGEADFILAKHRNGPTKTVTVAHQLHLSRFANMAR
# [15] = Luminescence Cell-Based Dose Retest to Confirm Inhibitors of Cancer Stem Cells. [Related pubchem assays (depositor defined):AID2717, AID2721]; type: functional; conditions: Homo sapiens
# Protein RecA = molecular target: T6, Protein RecA (Mycobacterium tuberculosis, UniProt P9WHJ3); experiment: Fluorescence Cell-Free Homogeneous Dose Retest to Identify Inhibitors of RecA-Intein Splicing Activity. [Related pubchem assays (depositor defined):AID2097, AID2223, AID489010, AID492950]; type: functional
# T6 sequence (P9WHJ3 whole entry): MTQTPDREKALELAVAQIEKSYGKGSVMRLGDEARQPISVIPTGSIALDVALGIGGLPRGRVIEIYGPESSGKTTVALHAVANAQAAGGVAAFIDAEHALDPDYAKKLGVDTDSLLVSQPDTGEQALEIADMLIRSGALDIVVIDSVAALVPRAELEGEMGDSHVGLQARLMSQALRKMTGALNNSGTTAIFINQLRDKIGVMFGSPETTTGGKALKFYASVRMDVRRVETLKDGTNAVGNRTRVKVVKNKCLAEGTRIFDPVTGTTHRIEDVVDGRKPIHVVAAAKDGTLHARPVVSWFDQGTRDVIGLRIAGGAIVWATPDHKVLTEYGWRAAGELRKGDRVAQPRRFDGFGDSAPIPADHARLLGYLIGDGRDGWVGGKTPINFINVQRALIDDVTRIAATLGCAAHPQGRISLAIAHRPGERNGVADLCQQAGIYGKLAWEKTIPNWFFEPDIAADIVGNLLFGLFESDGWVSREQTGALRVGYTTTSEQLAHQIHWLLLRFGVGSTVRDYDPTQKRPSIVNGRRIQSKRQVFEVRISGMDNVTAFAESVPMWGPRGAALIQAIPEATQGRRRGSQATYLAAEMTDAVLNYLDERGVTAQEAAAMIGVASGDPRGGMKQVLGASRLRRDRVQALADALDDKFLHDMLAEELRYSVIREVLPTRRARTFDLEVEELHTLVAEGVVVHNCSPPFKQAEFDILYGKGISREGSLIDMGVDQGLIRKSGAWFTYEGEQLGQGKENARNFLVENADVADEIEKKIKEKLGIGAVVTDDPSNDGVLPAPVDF
# Fatty acid synthase [16] = molecular target: T4, Fatty acid synthase; experiment: inhibition of human FAS-TE enzyme activity – biochemical, kinetic fluorescence intensity, dose response (AID 624326); type: functional;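 further: rate of fluorescence rise from hydrolysis of a fluorogenic O-methyl fluorescein ester substrate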
# Large T antigen = Large T antigen (Simian virus 40, UniProt P03070); type: functional, Betapolyomavirus macacae;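 further: Confirmatory-stage PubChem screen for compounds that inhibit SV40 T antigen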
# Chain of Large T antigen (P03070 whole entry): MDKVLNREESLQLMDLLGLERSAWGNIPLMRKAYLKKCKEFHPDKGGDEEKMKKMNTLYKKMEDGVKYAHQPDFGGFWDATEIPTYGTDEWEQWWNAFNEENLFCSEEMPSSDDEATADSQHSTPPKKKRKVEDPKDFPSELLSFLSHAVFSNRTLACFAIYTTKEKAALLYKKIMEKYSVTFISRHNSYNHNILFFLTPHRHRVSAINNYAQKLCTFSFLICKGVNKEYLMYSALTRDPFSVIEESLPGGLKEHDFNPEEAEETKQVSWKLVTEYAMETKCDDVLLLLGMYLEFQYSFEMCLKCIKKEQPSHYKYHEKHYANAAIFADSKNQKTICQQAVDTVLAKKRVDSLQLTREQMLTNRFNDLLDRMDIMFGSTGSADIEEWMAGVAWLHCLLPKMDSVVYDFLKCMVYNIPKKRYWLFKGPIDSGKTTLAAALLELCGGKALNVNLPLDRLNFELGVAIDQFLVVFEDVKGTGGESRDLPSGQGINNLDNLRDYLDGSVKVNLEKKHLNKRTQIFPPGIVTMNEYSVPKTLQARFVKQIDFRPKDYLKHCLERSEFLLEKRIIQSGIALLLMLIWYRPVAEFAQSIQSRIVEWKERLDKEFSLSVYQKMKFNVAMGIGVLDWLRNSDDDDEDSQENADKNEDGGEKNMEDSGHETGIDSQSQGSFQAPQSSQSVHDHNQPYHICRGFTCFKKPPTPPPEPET
# T1 sequence (P11940 whole entry, the tested form may be a part): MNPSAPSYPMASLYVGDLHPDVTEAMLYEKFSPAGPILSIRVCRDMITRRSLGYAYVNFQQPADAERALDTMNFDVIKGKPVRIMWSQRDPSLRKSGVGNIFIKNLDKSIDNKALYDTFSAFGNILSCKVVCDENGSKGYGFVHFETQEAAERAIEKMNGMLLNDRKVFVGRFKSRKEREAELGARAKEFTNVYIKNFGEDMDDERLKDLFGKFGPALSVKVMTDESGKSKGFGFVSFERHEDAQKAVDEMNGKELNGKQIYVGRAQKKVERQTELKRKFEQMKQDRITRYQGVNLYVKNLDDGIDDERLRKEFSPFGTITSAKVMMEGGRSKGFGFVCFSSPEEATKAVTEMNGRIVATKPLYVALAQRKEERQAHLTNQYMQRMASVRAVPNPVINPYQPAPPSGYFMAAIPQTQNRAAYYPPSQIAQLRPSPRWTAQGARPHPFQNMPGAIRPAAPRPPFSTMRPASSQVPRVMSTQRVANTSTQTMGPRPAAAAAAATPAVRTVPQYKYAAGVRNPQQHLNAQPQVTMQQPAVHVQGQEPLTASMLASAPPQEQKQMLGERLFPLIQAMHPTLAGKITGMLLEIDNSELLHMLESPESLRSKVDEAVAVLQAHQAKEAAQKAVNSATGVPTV
# T4 sequence (P49327 whole entry): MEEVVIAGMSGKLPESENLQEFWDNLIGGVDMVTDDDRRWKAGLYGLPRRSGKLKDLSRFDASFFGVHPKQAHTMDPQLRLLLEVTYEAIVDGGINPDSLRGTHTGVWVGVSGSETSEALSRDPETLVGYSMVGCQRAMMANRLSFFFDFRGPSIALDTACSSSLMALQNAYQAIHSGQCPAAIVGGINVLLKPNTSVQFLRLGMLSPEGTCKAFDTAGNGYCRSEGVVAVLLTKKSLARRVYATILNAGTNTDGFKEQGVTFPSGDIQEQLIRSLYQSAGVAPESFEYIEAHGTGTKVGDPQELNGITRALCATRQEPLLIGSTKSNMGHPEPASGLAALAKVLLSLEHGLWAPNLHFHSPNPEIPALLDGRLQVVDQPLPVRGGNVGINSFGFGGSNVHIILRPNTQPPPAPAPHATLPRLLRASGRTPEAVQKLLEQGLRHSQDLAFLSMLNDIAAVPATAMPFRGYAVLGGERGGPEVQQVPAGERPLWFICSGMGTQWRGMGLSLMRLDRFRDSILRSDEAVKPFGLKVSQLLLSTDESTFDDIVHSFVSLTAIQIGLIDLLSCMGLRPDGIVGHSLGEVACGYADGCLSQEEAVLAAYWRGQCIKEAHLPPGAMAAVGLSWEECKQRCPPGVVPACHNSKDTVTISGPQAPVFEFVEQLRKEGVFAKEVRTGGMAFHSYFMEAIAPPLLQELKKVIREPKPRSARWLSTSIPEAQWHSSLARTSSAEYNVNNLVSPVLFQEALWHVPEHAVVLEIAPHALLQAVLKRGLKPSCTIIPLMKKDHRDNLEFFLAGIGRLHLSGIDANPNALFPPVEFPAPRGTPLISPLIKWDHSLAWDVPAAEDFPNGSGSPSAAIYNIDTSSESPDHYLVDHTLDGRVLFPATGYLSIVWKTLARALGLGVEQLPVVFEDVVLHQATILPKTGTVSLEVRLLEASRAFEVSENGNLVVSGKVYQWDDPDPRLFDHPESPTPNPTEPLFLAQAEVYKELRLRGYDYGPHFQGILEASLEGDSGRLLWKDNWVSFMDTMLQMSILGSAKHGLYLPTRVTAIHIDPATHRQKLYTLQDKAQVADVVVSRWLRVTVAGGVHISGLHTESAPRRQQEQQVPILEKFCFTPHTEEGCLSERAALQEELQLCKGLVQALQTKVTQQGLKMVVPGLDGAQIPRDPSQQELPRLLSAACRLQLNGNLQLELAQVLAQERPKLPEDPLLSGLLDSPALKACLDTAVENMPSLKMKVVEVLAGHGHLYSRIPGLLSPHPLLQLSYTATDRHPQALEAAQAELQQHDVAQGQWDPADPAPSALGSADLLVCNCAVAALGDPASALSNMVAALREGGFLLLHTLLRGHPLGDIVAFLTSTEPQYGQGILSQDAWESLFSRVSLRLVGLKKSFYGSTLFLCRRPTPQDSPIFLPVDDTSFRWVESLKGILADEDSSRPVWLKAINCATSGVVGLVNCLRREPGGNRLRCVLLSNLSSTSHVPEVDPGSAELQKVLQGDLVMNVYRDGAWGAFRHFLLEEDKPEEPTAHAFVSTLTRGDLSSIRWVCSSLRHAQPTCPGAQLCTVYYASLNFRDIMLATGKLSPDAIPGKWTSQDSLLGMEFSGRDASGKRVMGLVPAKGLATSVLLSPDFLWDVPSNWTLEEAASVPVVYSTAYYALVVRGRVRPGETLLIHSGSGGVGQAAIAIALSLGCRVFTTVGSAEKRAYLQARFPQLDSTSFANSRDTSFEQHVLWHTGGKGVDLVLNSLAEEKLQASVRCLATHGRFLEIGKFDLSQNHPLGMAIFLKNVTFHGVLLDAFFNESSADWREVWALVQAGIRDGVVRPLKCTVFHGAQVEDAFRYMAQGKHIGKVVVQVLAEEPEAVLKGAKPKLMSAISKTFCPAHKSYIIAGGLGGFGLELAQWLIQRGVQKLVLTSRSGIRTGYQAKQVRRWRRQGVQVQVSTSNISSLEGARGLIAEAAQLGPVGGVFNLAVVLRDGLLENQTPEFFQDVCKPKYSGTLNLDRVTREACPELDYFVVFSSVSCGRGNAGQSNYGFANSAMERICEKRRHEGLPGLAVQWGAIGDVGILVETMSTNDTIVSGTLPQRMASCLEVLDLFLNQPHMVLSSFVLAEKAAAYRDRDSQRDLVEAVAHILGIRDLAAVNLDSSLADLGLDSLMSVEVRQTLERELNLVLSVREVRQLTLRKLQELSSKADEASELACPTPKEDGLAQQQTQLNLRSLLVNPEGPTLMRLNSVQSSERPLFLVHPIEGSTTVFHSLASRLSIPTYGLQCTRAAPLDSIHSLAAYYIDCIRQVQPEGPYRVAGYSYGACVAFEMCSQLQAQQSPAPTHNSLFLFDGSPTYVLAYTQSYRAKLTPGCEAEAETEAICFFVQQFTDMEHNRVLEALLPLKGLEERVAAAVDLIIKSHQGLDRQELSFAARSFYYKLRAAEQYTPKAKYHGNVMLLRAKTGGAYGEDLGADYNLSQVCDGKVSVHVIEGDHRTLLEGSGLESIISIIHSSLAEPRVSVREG
compound,measurement,setting,value
Cc1nnc(NC(=O)C2c3ccccc3Oc3ccccc32)s1,IC50,[1],> 66 µM (inactive)
same,IC50,[2],> 66 µM (inactive)
c1ccc(C2(CN3CCNC[C@H]3Cc3cccc4ccccc34)CC2)cc1,IC50,[3],> 20 µM (inactive)
COc1ccc2nc3oc(C(=O)NC4CCN(Cc5ccccc5)CC4)cc3cc2c1,IC50,[3],> 20 µM (inactive)
Cc1ccc(C(N)=S)c(C)c1,IC50,[1],> 66 µM (inactive)
same,IC50,[2],> 66 µM (inactive)
c1csc(CNc2ncnc3sccc23)c1,AC50,[4],39.4 µM (active)
same,AC50,[5],4.77 µM (active)
same,AC50,[6],46.1 µM (active)
same,EC50,[7],> 160 µM (inconclusive)
same,AC50,[8],4.61 µM (active)
same,AC50,[9],1.8 µM (active)
same,AC50,[10],8.87 µM (active)
same,EC50,[11],3.28 µM (active)
CCCCN=C(S)NNC(=O)c1csc2ccccc12,EC50,[12],> 260 µM (inactive)
Cn1c(=O)c2nc(COc3ccccc3)[nH]c2n(C)c1=O,IC50,[1],29.7 µM (inactive)
same,IC50,[2],33.5 µM (inactive)
CCCCOc1ccc(C(=O)N/N=C/c2c[nH]nc2-c2ccc(OC)c(OC)c2)cc1,EC50,[12],> 260 µM (inactive)
CO[C@@H](CN(C)S(=O)(=O)c1ccc(Cl)cc1)[C@@H](C)CN([C@H](C)CO)S(=O)(=O)c1cccc(Cl)c1,AC50,[4],1.25 µM (active)
same,AC50,[6],1.1 µM (active)
same,AC50,[10],19.5 µM (active)
CC(C)(C)OC(=O)NCCc1nnc(S(=O)(=O)Cc2ccc(Cl)cc2Cl)o1,IC50,Fatty acid synthase [13],4.23 µM (active)
same,IC50,cells,30.1 µM (active)
same,AC50,[14],1.61 µM (active)
same,AC50,[15],3.94 µM (active)
same,EC50,Protein RecA,4.66 µM (active)
same,IC50,Fatty acid synthase [16],6.42 µM (active)
CC(/C=N/n1c(S)nnc1-c1cccnc1)=C\c1ccccc1,IC50,Large T antigen,58.1 µM (active)
C/C(=N\NC(=O)Cn1cc([N+](=O)[O-])cn1)c1ccc(O)cc1,IC50,Large T antigen,54.5 µM (active)
